# Assay results taken from patent US20050020854A1, “Alkyl(en)ylglycerinether carboxylic acids” (priority 2001, published 2005).
# Where two headings read alike, the source gives them in different places.
# System: mucous membrane (HET-CAM)
# Assay: Mucous membrane compatibility, in vitro HET-CAM test, reaction time method
# Method: Mucous membrane compatibility was evaluated by the in vitro HET-CAM test using the reaction time method (conc. 5% in 2×-distilled water, pH=6).
# [1] = conc. 5% in 2×-distilled water, pH=6
Substance,Evaluation,Irritation value Q,Evaluation [1],Irritation value Q [1]
Sodium Laureth Sulfate [Texapon ASV],Moderately,1.0,,
mono-C12-glycerol ether carboxylic acid [Example 1],,,Slightly irritating,0.76
mono-C12-glycerol ether+4EO ether carboxylic acid [Example 2],,0.00,,
